Source: patent US20100056516A1 (priority 2006, published 2010)
Where two headings read alike, the source gives them in different places.

Tests used:
HXB2 virus = assay: microbe, parasite or virus in culture; format: cell-based, HIV
How it was run: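 HXB2 virus used to infect HeLa P4-2 cells in a single-cycle format; inhibition of acute infection is measured.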

HIV integrase = HIV integrase (Human immunodeficiency virus type 1 group M subtype B, UniProt P04585); assay: integrase strand transfer assay (STA); format: biochemical
[1] = molecular target: HIV-1 reverse transcriptase (RNase H) (Human immunodeficiency virus type 1 group M subtype B, UniProt P04585); assay: ASH assay: RNase H mediated RNA cleavage (ECL format, BioVeris M384); format: biochemical
Method: Potency of a substance as an RNase H inhibitors can be determined by measuring its ability prevent RNase H catalyzed cleavage of the RNA strand in a RNA/DNA hybrid duplex substrate. RNase H activity is measured using a substrate generated by annealing the oligoribo-nucleotide 5′-rCrCrUrCrUrCrArArArArArCrArGrGrArGrCrArGrArArArGrArCrArArG (SEQ ID NO:1) to the oligodeoxyribonucleotide 5′-Biotin-[…] (SEQ ID NO:2). […] (SEQ ID NO:3). The resulting double-stranded duplex DNA product is quantitated in an ALPHA screen format using [streptavidin- and anti-fluorescein-coated beads (Packard Bioscience) following the manufacturer's guidelines and reading on a Fusion AlphaScreen instrument. Alternatively, the released 5′-Biotinylated DNA is annealed to a complementary oligodeoxyribonucleotide: 5′-ruthenium-[…] (SEQ ID NO:3). The resulting double-stranded duplex DNA product is quantitated in an ECL screen format using Dynabeads M280 coated with streptavidin (BioVeris Corporation) following the manufacturer's guidelines and reading on a BioVeris M384 Analyzer.

HeLa P4-2 cell line = test system: HeLa P4-2 cell line
From the text: The HeLa P4-2 cell line used in the single cycle HIV infectivity Assay B of Example 270 was also used to determine compound cytotoxicity in the absence of viral infection.

[2] = Human immunodeficiency virus 1, HXB2, HeLaP4-2, read-out: SCIA-B (IC50, μM)
[3] = Human immunodeficiency virus 1, HXB2, HeLaP4-2, read-out: antiviral IC50 (SCIA-B)
[4] = IC50 in the STA assay, integrase strand transfer
[5] = STA (IC50, μM), integrase strand-transfer assay, Example 269
[6] = integrase strand transfer, read-out: IC50 in the STA assay
[7] = integrase strand-transfer assay, Example 269, read-out: STA (IC50)
[8] = RNase H mediated RNA cleavage assay, Example 269, read-out: ASH (IC50)

SMILES | IC50 (HXB2 virus; [2]) | IC50 (HXB2 virus; [3]) | IC50 (HIV integrase; [4]) | IC50 (HIV integrase; [5]) | IC50 [1] | Cytotoxicity (LD50, μM) (HeLa P4-2 cell line; human) | IC50 (HIV integrase; [6]) | IC50 (HIV integrase; [7]) | IC50 [1, 8] | Cytotoxicity (LD50, μM) (HeLa P4-2 cell line; cytotoxicity test B, Alamar Blue, HeLa P4-2 cells, no virus, tested up to 100 micromolar)
CNC(=O)c1c(O)c2cccnc2n(O)c1=O [Example 24, 1,4-Dihydroxy-N-methyl-2-oxo-1,2-dihydro-1,8-naphthyridine-3-carboxamide] | 0.22 µM | < 100 µM | < 50 µM | 0.55 µM | 180 nM | >100 µM | – | – | – | –
O=c1cc(NCc2cccc(N3CCOCC3)n2)c2cccnc2n1O [Example 115, 1-hydroxy-4-{[(6-morpholin-4-ylpyridin-2-yl)methyl]amino}-1,8-naphthyridin-2(1H)-one] | 0.11 µM | < 100 µM | < 50 µM | 1.9 µM | 180 nM | 8.6 µM | – | – | – | –
NCc1cccc(-c2cccc(Cc3cc(=O)n(O)c4ncccc34)c2)c1 [Example 231, 4-{[3′-(aminomethyl)biphenyl-3-yl]methyl}-1-hydroxy-1,8-naphthyridin-2(1 H)-one] | 0.29 µM | < 100 µM | – | – | – | 10 µM | < 50 µM | 1.1 µM | 340 nM | –
O=c1cc(Nc2ccc(-c3ccccc3)cc2)c2cccnc2n1O [Example 106, 4-(Biphenyl-4-ylamino)-1-hydroxy-1,8-naphthyridin-2(1H)-one] | 0.43 µM | < 100 µM | < 50 µM | 0.22 µM | 88 nM | 12 µM | – | – | – | –
NCc1cccc(-c2cc(=O)n(O)c3ncccc23)c1 [Example 172, 4-[3-(aminomethyl)phenyl]-1-hydroxy-1,8-naphthyridin-2(1H)-one] | 0.26 µM | < 100 µM | < 50 µM | 0.22 µM | 140 nM | 5.5 µM | – | – | – | –
COc1ccccc1CNc1cc(=O)n(O)c2ncccc12 [Example 142, 1-hydroxy-4-[(2-methoxybenzyl)amino]-1,8-naphthyridin-2(1H-one)] | 0.09 µM | < 100 µM | < 50 µM | 0.56 µM | 84 nM | 4.4 µM | – | – | – | –
CCOC(=O)c1ccnc2c1c(-c1ccc(-c3ccc(CN)cc3)cc1)cc(=O)n2O [Example 241, Ethyl 5-[4′-(aminomethyl)biphenyl-4-yl]-8-hydroxy-7-oxo-7,8-dihydro-1,8-naphthyridine-4-carboxylate] | 0.32 µM | < 100 µM | – | – | – | 3.8 µM | < 50 µM | 6.2 µM | 290 nM | –
COC(=O)c1ccc2c(c1)CCN(c1cc(=O)n(O)c3ncccc13)C2 [Example 121, 4-[6-(methoxycarbonyl)-3,4-dihydroisoquinolin-2(1H)-yl]-1-hydroxy-1,8-naphthyridin-2(1H)-one] | 0.26 µM | < 100 µM | < 50 µM | 0.6 µM | 150 nM | 16 µM | – | – | – | –
O=c1cc(NC2CCCc3ccccc32)c2cccnc2n1O (stereo not drawn) [Example 135, 1-hydroxy-4-(1,2,3,4-tetrahydronaphthalen-1-ylamino)-1,8-naphthyridin-2(1H)-one] | 0.5 µM | < 100 µM | < 50 µM | 0.19 µM | 61 nM | >100 µM | – | – | – | –
NCc1ccc(-c2ccc3c(c2)CN(c2cc(=O)n(O)c4ncccc24)C3)cc1 [Example 257, 4-{5-[4-(aminomethyl)phenyl]-1,3-dihydro-2H-isoindol-2-yl}-1-hydroxy-1,8-naphthyridin-2(1H)-one] | 0.35 µM | < 100 µM | < 50 µM | 46 µM | 33 nM | 49 µM | – | – | – | –
O=c1cc(Cc2ccc(CCc3ccc(F)cc3F)cc2)c2cccnc2n1O [Example 236, 4-{4-[2-(2,4-difluorophenyl)ethyl]benzyl}-1-hydroxy-1,8-naphthyridin-2(1H)-one] | 0.26 µM | < 100 µM | < 50 µM | 0.05 µM | 120 nM | 21 µM | – | – | – | –
NCc1ccc(-c2ccc(Cc3cc(=O)n(O)c4ncccc34)cc2)cc1 [Example 235, 4-{[4′-(aminomethyl)biphenyl-4-yl]methyl}-1-hydroxy-1,8-naphthyridin-2(1H)-one] | 0.13 µM | < 100 µM | > 50 µM | > 50 µM | 46 nM | 7.8 µM | – | – | – | –
NCc1ccc(-c2ccc(-c3c(-c4ccccc4)c(=O)n(O)c4ncc(F)cc34)cc2)cc1 [Example 242, 4-[4′-(aminomethyl)biphenyl-4-yl]-6-fluoro-1-hydroxy-3-phenyl-1,8-naphthyridin-2-(1H)-one] | 0.25 µM | < 100 µM | < 50 µM | 7.4 µM | 180 nM | 310 µM | – | – | – | –
O=c1c(-c2cccc(C(F)(F)F)c2)c(O)c2cccnc2n1O [Example 28, 1,4-Dihydroxy-3-[3-(trifluoromethyl)phenyl]-1,8-naphthyridin-2(1H)-one] | 0.22 µM | < 100 µM | – | – | – | >100 µM | < 50 µM | 0.26 µM | 120 nM | –
COc1ccc(CNc2cc(=O)n(O)c3ncccc23)cc1 [Example 140, 1-hydroxy-4-[(4-methoxybenzyl)amino]-1,8-naphthyridin-2(1H-one)] | 0.09 µM | < 100 µM | < 50 µM | 0.22 µM | 110 nM | 5 µM | – | – | – | –
CCOC(=O)c1c(O)c2cc(C(=O)N(C)CCc3ccccc3)cnc2n(O)c1=O [Example 81, Ethyl 1,4-dihydroxy-6-{[methyl(2-phenylethyl)amino]carbonyl}-2-oxo-1,2-dihydro-1,8-naphthyridine-3-carboxylate] | 0.06 µM | < 100 µM | – | – | – | >100 µM | < 50 µM | 0.027 µM | 270 nM | –
O=c1c(-c2ccccn2)c(O)c2cccnc2n1O [Example 27, 1,4-Dihydroxy-3-pyridin-2-yl-1,8-naphthyridin-2(1B)-one] | 0.5 µM | < 100 µM | < 50 µM | 0.06 µM | 100 nM | 6.2 µM | – | – | – | –
O=c1cc(N2CCc3ncccc3C2)c2cccnc2n1O [Example 123, 4-(7,8-dihydro-1,6-naphthyridin-6(5H)-yl)-1-hydroxy-1,8-naphthyridin-2(1H)-one] | 0.42 µM | < 100 µM | – | – | – | – | < 50 µM | 2.4 µM | 110 nM | 8.7 µM
CN1CCN(Cc2cccc(CNc3cc(=O)n(O)c4ncccc34)c2)CC1 [Example 150, 1-hydroxy-4-({3-[(4-methyl-1-piperazinyl)methyl]benzyl}amino)-1,8-naphthyridin-2(1H-one)] | 0.07 µM | < 100 µM | < 50 µM | 1.7 µM | 150 nM | 14 µM | – | – | – | –
O=c1cc(NC2CCN(c3ccccc3)CC2)c2cccnc2n1O [Example 154, 1-hydroxy-4-[(1-phenyl-4-piperidinyl)amino]-1,8-naphthyridin-2(1H-one)] | 0.27 µM | < 100 µM | < 50 µM | 1.7 µM | 200 nM | 7.2 µM | – | – | – | –
NCc1ccccc1CNc1cc(=O)n(O)c2ncccc12 [Example 163, 4-{[2-(aminomethyl)benzyl]amino}-1-hydroxy-1,8-naphthyridin-2 (1H-one)] | 0.14 µM | < 100 µM | > 50 µM | > 50 µM | 180 nM | 50 µM | – | – | – | –
O=c1cc(NCc2ccccn2)c2cccnc2n1O [Example 149, 1-hydroxy-4-[(2-pyridinylmethyl)amino]-1,8-naphthyridin-2(1H-one)] | 0.06 µM | < 100 µM | < 50 µM | 0.7 µM | 140 nM | 5.2 µM | – | – | – | –
O=c1cc(NC2CCc3ccccc32)c2cccnc2n1O (stereo not drawn) [Example 134, 4-(2,3-dihydro-1H-inden-1-ylamino)-1-hydroxy-1,8-naphthyridin-2(1H)-one] | 0.034 µM | < 100 µM | < 50 µM | 0.36 µM | 91 nM | 23 µM | – | – | – | –
O=c1c(-c2cccc(Cl)c2)c(O)c2cccnc2n1O [Example 33, 3-(3-Chlorophenyl)-1,4-dihydroxy-1,8-naphthyridin-2(1H)-one] | 0.66 µM | < 100 µM | – | – | – | >100 µM | < 50 µM | 0.18 µM | 47 nM | –
